Source: US20200339691A1, “PROTEINACEOUS MOLECULES AND USES THEREFOR” (priority 2018, published 2020)
Where a SMILES comes first, the peptide text is derived from it. The star is where a group is joined. Myristoyl = CCCCCCCCCCCCCC(=O)*

Legend:
[1] = system: MDA-MB-231 cells; type: cell-based, human; details: 50 μM peptide, 48 hours, n = 1;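 for COI, Live Single Cells (Cell Count): live means Hoechst-negative events among single cells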
Description: (§1) Non-adherent cells were removed during the washing steps.

[2] = system: CD44^hiCD24^lo CSCs in MDA-MB-231 cells; test: FACS analysis of CD44^hiCD24^lo cancer stem cells in MDA-MB-231 cells treated with P1 analogues; type: cell-based, human; details: 50 μM peptide, 48 hours; for CD44^hiCD24^lo CSCs (%) / COI, Live Single CD44^hiCD24^lo CSCs (Cell Count): n = 1; for Average Inhibition of CSCs (%) / CD44^hiCD24^lo CSCs (%) Repeat 1 / CD44^hiCD24^lo CSCs (%) Repeat 2 / CD44^hiCD24^lo CSCs (%) Repeat 3: n = 3
Method: Analogues of P1 (Table 6) were designed and synthesized in accordance with the procedure of Example 5. The ability of these analogues to inhibit cancer stem cells was determined using FACS analysis on MDA-MB-231 cells, which constitutively contain approximately 90% CD44^hiCD24^lo cancer stem cells, treated with the peptides.
as §1

SMILES	COI (Cell Count) [1]	COI, Live Single Cells (Cell Count) [1]	COI, Single (Cell Count) [1]	Total Cell Count [1]	Inhibition of CSCs (%) Repeat 1 [2] [%]	Inhibition of CSCs (%) Repeat 2 [2] [%]	Inhibition of CSCs (%) Repeat 3 [2] [%]	CD44^hiCD24^lo CSCs (%) [2] [%]	COI, Live Single CD44^hiCD24^lo CSCs (Cell Count) [2]	Average Inhibition of CSCs (%) [2] [%]	CD44^hiCD24^lo CSCs (%) Repeat 1 [2] [%]	CD44^hiCD24^lo CSCs (%) Repeat 2 [2] [%]	CD44^hiCD24^lo CSCs (%) Repeat 3 [2] [%]
CCCCCCCCCCCCCC(=O)N[C@@H](CC(C)C)C(=O)N[C@@H](CCC(=O)O)C(=O)N[C@@H](Cc1ccccc1)C(=O)N[C@H](C(=O)N[C@@H](Cc1ccccc1)C(=O)N[C@@H](CCCNC(=N)N)C(=O)N[C@@H](CC(C)C)C(=O)N[C@@H](CCCNC(=N)N)C(=O)N[C@@H](CCCCN)C(=O)NCC(=O)N[C@@H](CCCNC(=N)N)C(=O)N[C@@H](CCSC)C(=O)N[C@@H](CCSC)C(=O)N[C@@H](CC(=O)O)C(=O)N[C@H](C(=O)N[C@@H](CCCCN)C(=O)N[C@@H](CCCCN)C(N)=O)C(C)C)[C@@H](C)CC [Peptide 2853804, Myristoyl-LEFIFRLRKGRMMDVKK-NH2] (Myristoyl-LEFIFRLRKGRMMDVKK-NH2)	360	138	203	1384	85.86	80.73	86.58	13.77	19	84.39	12.67	17.29	12.05
CCCCCCCCCCCCCC(=O)N[C@@H](CC(C)C)C(=O)N[C@@H](CC(C)C)C(=O)N[C@@H](Cc1ccccc1)C(=O)N[C@H](C(=O)N[C@@H](Cc1ccccc1)C(=O)N[C@@H](CCCNC(=N)N)C(=O)N[C@@H](CC(C)C)C(=O)N[C@@H](CCCNC(=N)N)C(=O)N[C@@H](CCCCN)C(=O)NCC(=O)N[C@@H](CCCNC(=N)N)C(=O)N[C@@H](CCSC)C(=O)N[C@@H](CCSC)C(=O)N[C@@H](CC(=O)O)C(=O)N[C@H](C(=O)N[C@@H](CCCCN)C(=O)N[C@@H](CCCCN)C(N)=O)C(C)C)[C@@H](C)CC [Peptide 2853806, Myristoyl-LLFIFRLRKGRMMDVKK-NH2] (Myristoyl-LLFIFRLRKGRMMDVKK-NH2)	3997	3659	3696	4893	4.36	9.44	10.85	91.86	3361	8.22	85.71	81.25	80.00
CCCCCCCCCCCCCC(=O)N[C@@H](CC(C)C)C(=O)N[C@H](C(=O)N[C@@H](CCC(=O)O)C(=O)N[C@H](C(=O)N[C@@H](Cc1ccccc1)C(=O)N[C@@H](CCCNC(=N)N)C(=O)N[C@@H](CC(C)C)C(=O)N[C@@H](CCCNC(=N)N)C(=O)N[C@@H](CCCCN)C(=O)NCC(=O)N[C@@H](CCCNC(=N)N)C(=O)N[C@@H](CCSC)C(=O)N[C@@H](CCSC)C(=O)N[C@@H](CC(=O)O)C(=O)N[C@H](C(=O)N[C@@H](CCCCN)C(=O)N[C@@H](CCCCN)C(N)=O)C(C)C)[C@@H](C)CC)[C@@H](C)O [Peptide 2853807, Myristoyl-LTEIFRLRKGRMMDVKK-NH2] (Myristoyl-LTEIFRLRKGRMMDVKK-NH2)	690	168	439	3558	84.07	81.60	86.81	11.31	19	84.16	14.28	16.51	11.84
